Data published in patent US20120149697A1 (priority 2009, published 2012).

Test system: ScGT1 cells
Details: for cells remained viable: mouse

In the case of fulvic acids [FA], the “cell viability (cytotoxicity effect)” value is reported as “remain viable” and the cells remained viable is reported as 94%.
humic acids [HA] was tested, and the “cell viability (cytotoxicity effect)” value was “remain viable” and the cells remained viable was 96%.
